This passage reports Km results from publication PMC5619143 (Future Microbiology, 2017).

The Km is the substrate concentration at which the rate is half of its maximum.

The subject of the test is LdtMav2. Kind of test: nitrocefin hydrolysis, absorbance at […] nm, Michaelis-Menten fit. Format: biochemical, Mycobacterium avium. The following applies: pH 6.5, 25 °C.

`O=C(Cc1cccs1)N[C@@H]1C(=O)N2C(C(=O)O)=C(/C=C/c3ccc([N+](=O)[O-])cc3[N+](=O)[O-])CS[C@H]12` [nitrocefin]: the Km came out at 75 µM.
